Test results reported in PMC7572570 (Clinical cancer research : an official journal of the …, 2020).
Where “and” joins values, the source holds several entries; their conditions need not be identical. Identical values can stand only once. Like-named read-outs stand apart in the source and are kept apart here.

Legend:
[1] = test system: select advanced solid tumors or hematologic malignancies; test: Treatment duration and antitumor activity; type: in vivo, human; conditions: all cohorts, heavily pre-treated population with liver dysfunction
[2] = in vivo
[3] = population PK analysis in patients with CTCL and PTCL; cited from earlier work
clinical = conditions: human, plasma
[4] = Safety, dose-limiting toxicity and treatment-emergent adverse events
[5] = mild hepatic impairment 14 mg/m^2 vs normal 14 mg/m^2
[6] = moderate hepatic impairment 7 mg/m^2 vs normal 14 mg/m^2
[7] = patients who did not experience a DLT
[8] = severe hepatic impairment 5 mg/m^2 vs normal 14 mg/m^2
[9] = the two patients who had DLTs (individual values)
[10] = Severe (D) n=6, 5 mg/m^2, treatment-related TEAE, Cycle 1
[11] = Total n=31, all cohorts, treatment-related TEAE, Cycle 1

C/C=C1\NC(=O)[C@H]2CSSCC/C=C/[C@H](CC(=O)N[C@H](C(C)C)C(=O)N2)OC(=O)[C@H](C(C)C)NC1=O [romidepsin]
stable disease as best clinical response [1]: 12 patients
plasma concentrations at last time point (48 hours after initiation of the infusion): still quantifiable at the 48-hour time point
T1/2 (terminal half-life) (Mild Cohort B, 14 mg/m^2 IV, geometric mean ± SD): 13.55±1.41 (7) hr
change of clearance with hepatic function (compared to the normal hepatic function cohort): clearance decreased with worsening hepatic function
geometric mean AUCINF as % of normal hepatic function cohort [5]: ~144%
geometric mean Cmax as % of normal hepatic function cohort [5]: approximately 115%
geometric mean AUCINF as % of normal hepatic function cohort [6]: 114%
geometric mean Cmax as % of normal hepatic function cohort [6]: 96%
dose-normalized AUCINF (AUCINF/D), range [7]: 29.9 to 507.4 ng·h/mL/mg
dose-normalized Cmax (Cmax/D), range [7]: 7.3 to 84.6 ng/mL/mg
time at which plasma concentrations reached a plateau (post infusion initiation (first sample collected), 4-hour IV infusion): approximately 1 hour
geometric mean AUCINF as % of normal hepatic function cohort [8]: 116%
geometric mean Cmax as % of normal hepatic function cohort [8]: approximately 95%
clearance [9]: 6.8 L/h
dose-normalized AUCINF (AUCINF/D) [9]: 192.4 ng·h/mL/mg and 146.6 ng·h/mL/mg
dose-normalized Cmax (Cmax/D) [9]: 32.1 ng/mL/mg and 40.5 ng/mL/mg
Alkaline phosphatase increased, Any Grade ([2]; human): 1 (3%) n (%)
Anorexia, Any Grade ([2]; human): 11 (35%) n (%)
ECG changes (QT, ST-T changes), number of patients ([2]; human): 4
ECG changes (QT, ST-T changes), patients ([2]; human): 23%
Aspartate aminotransferase increased, Any Grade ([2]; human, 28 day): 1 (3%) n (%)
Asthenia, Any Grade ([2]; human, 28 day): 3 (10%) n (%)
Bradycardia, Any Grade ([2]; human, 28 day): 1 (3%) n (%)
Creatinine increased, Any Grade ([2]; human, 28 day): 2 (6%) n (%)
aPTT increased, Any Grade ([2]; human, 28 day): 1 (3%) n (%)
decreased white blood cell counts, all grade treatment-emergent adverse event ([2]; human, 28 day): 55%
subjects who discontinued before the end of Cycle 1 due to an adverse event ([2]; human, 28 day): 3
vomiting, all grade treatment-emergent adverse event ([2]; human, 28 day): 42%
Abdominal distension, Any Grade ([2]; human, 28 days): 1 (3%) n (%)
Abdominal pain, Any Grade ([2]; human, 28 days): 1 (3%) n (%)
Anemia, Any Grade ([2]; human, 28 days): 9 (29%) n (%)
Anemia, Grade 3 or 4 ([2]; human, 28 days): 1 (3%) n (%)
Diarrhea, Any Grade ([2]; human, 28 days): 2 (6%) n (%)
Dizziness, Any Grade ([2]; human, 28 days): 2 (6%) n (%)
Dry mouth, Any Grade ([2]; human, 28 days): 1 (3%) n (%)
Dry skin, Any Grade ([2]; human, 28 days): 1 (3%) n (%)
Dysgeusia, Any Grade ([2]; human, 28 days): 3 (10%) n (%)
Dyspepsia, Any Grade ([2]; human, 28 days): 1 (3%) n (%)
Fatigue, Any Grade ([2]; human, 28 days): 13 (42%) n (%)
Fatigue, Grade 3 or 4 ([2]; human, 28 days): 2 (6%) n (%)
Gastric haemorrhage, Any Grade ([2]; human, 28 days): 1 (3%) n (%)
Gastric haemorrhage, Grade 3 or 4 ([2]; human, 28 days): 1 (3%) n (%)
Generalized pain, Any Grade ([2]; human, 28 days): 1 (3%) n (%)
Glossodynia, Any Grade ([2]; human, 28 days): 1 (3%) n (%)
Headache, Any Grade ([2]; human, 28 days): 4 (13%) n (%)
Hypercalcemia, Any Grade ([2]; human, 28 days): 1 (3%) n (%)
Hyperuricemia, Any Grade ([2]; human, 28 days): 1 (3%) n (%)
Hypoalbuminemia, Any Grade ([2]; human, 28 days): 3 (10%) n (%)
Hypocalcemia, Any Grade ([2]; human, 28 days): 1 (3%) n (%)
Hypoglycemia, Any Grade ([2]; human, 28 days): 1 (3%) n (%)
Hypokalemia, Any Grade ([2]; human, 28 days): 1 (3%) n (%)
Hypomagnesmia, Any Grade ([2]; human, 28 days): 1 (3%) n (%)
Hyponatremia, Any Grade ([2]; human, 28 days): 4 (13%) n (%)
Hypotension, Any Grade ([2]; human, 28 days): 1 (3%) n (%)
Hypotension, Grade 3 or 4 ([2]; human, 28 days): 1 (3%) n (%)
Muscle cramping, Any Grade ([2]; human, 28 days): 1 (3%) n (%)
Nausea, Any Grade ([2]; human, 28 days): 21 (68%) n (%)
Nausea, Grade 3 or 4 ([2]; human, 28 days): 2 (6%) n (%)
Peripheral neuropathy, Any Grade ([2]; human, 28 days): 2 (6%) n (%)
Photophobia, Any Grade ([2]; human, 28 days): 1 (3%) n (%)
QTc prolongation, Any Grade ([2]; human, 28 days): 7 (23%) n (%)
Tachycardia, Any Grade ([2]; human, 28 days): 2 (6%) n (%)
Thrombocytopenia, Any Grade ([2]; human, 28 days): 16 (52%) n (%)
Thrombocytopenia, Grade 3 or 4 ([2]; human, 28 days): 1 (3%) n (%)
Vomiting, Any Grade ([2]; human, 28 days): 13 (42%) n (%)
WBC decrease, Any Grade ([2]; human, 28 days): 17 (55%) n (%)
WBC decrease, Grade 3 or 4 ([2]; human, 28 days): 7 (23%) n (%)
Weight loss, Any Grade ([2]; human, 28 days): 1 (3%) n (%)
Torsades de Pointes or other treatment-emergent arrhythmia [2]: no cases of Torsades de Pointes or other treatment-emergent arrhythmia
dose-limiting toxicity [2]: without DLT
dose-limiting toxicity, patients [2]: two patients
effect of mild hepatic impairment on exposure [3]: no effect on romidepsin exposure
clearance (clinical; intravenous, clearance, range, patients who did not experience a DLT): 33.3 to 557 mL/min
half-life (clinical; iv, 5 mg/m2): 14.5 ± 4.25 h
clearance (clinical; iv, 5 mg/m2, Cl (systemic clearance), Severe Cohort D, 5 mg/m^2 IV, geometric mean ± SD): 80 mL/min
Vd (clinical; iv, 5 mg/m2, V (volume of distribution), Severe Cohort D, 5 mg/m^2 IV, geometric mean ± SD): 15.4 ± 5.1 L
half-life (clinical; iv, 7 mg/m2): 14.1 ± 3.88 h
clearance (clinical; iv, 7 mg/m2, Cl (systemic clearance), Moderate Cohort C, 7 mg/m^2 IV, geometric mean ± SD): 115 mL/min
Vd (clinical; iv, 7 mg/m2, V (volume of distribution), Moderate Cohort C, 7 mg/m^2 IV, geometric mean ± SD): 19 ± 6.4 L
half-life (clinical; iv, 14 mg/m2): 11.1 ± 2.1 h
clearance (clinical; iv, 14 mg/m2, Cl (systemic clearance), Mild Cohort B, 14 mg/m^2 IV, geometric mean ± SD): 160 mL/min
clearance (clinical; iv, 14 mg/m2, Cl (systemic clearance), Normal Cohort A, 14 mg/m^2 IV, geometric mean ± SD): 270 mL/min
Vd (clinical; iv, 14 mg/m2, V (volume of distribution), Mild Cohort B, 14 mg/m^2 IV, geometric mean ± SD): 17.1 ± 2.5 L
Vd (clinical; iv, 14 mg/m2, V (volume of distribution), Normal Cohort A, 14 mg/m^2 IV, geometric mean ± SD): 20.7 ± 12.5 L
Flu-like symptoms (malaise), Any Grade [4, 10]: 1 (17%) n (%)
Infections, Any Grade [4, 10]: 1 (17%) n (%)
Flu-like symptoms (malaise), Any Grade [4, 11]: 3 (10%) n (%)
Infections, Any Grade [4, 11]: 4 (13%) n (%)
Infections, Grade 3 or 4 [4, 11]: 1 (3%) n (%)
subjects who discontinued before the end of Cycle 1 due to death ([4]; all cohorts, n): 5
